Assay results as given in ChEMBL document CHEMBL1134742, “Synthesis and structure-activity relationships of thiotetronic acid analogues of thiolactomycin” (2001).
Values after ≈ are worked out from the molar mass of the structure shown.

Columns and labels:
[1] = test system: Pasteurella multocida; experiment: Antibacterial activity against Pasteurella multocida; assay type: functional
[2] = test system: Staphylococcus aureus; experiment: Antibacterial activity against Staphylococcus aureus; assay type: functional

Work on `CC1=C(O)S[C@](C)(/C=C(\C)C=C(Br)Br)C1=O` yielded an MIC [1] greater than 100 µg/mL and an MIC [2] greater than 100 µg/mL.

For `CCCCCC(=O)/C=C/C(C)=C/[C@@]1(C)SC(O)=C(C)C1=O`, the MIC [1] was greater than 100 µg/mL and the MIC [2] was greater than 100 µg/mL.

For `CC1=C(O)S[C@](C)(/C=C(\C)CO)C1=O`, the MIC [1] was greater than 100 µg/mL and the MIC [2] was greater than 100 µg/mL.

`CC(=O)C1=C(O)S/C(=C\c2cccc(OCc3ccccc3)c2)C1=O` showed an MIC [1] greater than 200 µg/mL and an MIC [2] of 3.13 µg/mL (≈ 8.88 µM).

Work on `CC(=O)C1=C(O)S/C(=C\c2cccs2)C1=O` yielded an MIC [1] of 1.56 µg/mL (≈ 6.18 µM) and an MIC [2] greater than 200 µg/mL.

Compound `CCOC(=O)/C=C/C=C/C(C)=C/[C@@]1(C)SC(O)=C(C)C1=O` has an MIC [1] greater than 100 µg/mL and an MIC [2] greater than 100 µg/mL.

With `CC1=C(O)S[C@](C)(/C=C(C)/C=C/c2ccccc2)C1=O` the MIC [1] was greater than 100 µg/mL and the MIC [2] was greater than 100 µg/mL.

Compound `CCCNC/C(C)=C/[C@@]1(C)SC(O)=C(C)C1=O` has an MIC [1] greater than 100 µg/mL and an MIC [2] greater than 100 µg/mL.

`CC(=O)C1=C(O)SC(Cc2cccc(C(F)(F)F)c2)C1=O` (stereo not given) was tested, and the MIC [1] was 3.13 µg/mL (≈ 9.9 µM) and the MIC [2] was 3.13 µg/mL (≈ 9.9 µM).

`CC(=O)C1=C(O)SC(COC(=O)Cc2ccccc2)C1=O` (stereo not given) was tested, and the MIC [1] was greater than 200 µg/mL and the MIC [2] was 3.13 µg/mL (≈ 10.2 µM).

Work on `CC(=O)C1=C(O)S/C(=C\c2ccc3c(c2)OCO3)C1=O` yielded an MIC [1] greater than 200 µg/mL and an MIC [2] greater than 200 µg/mL.

`CCOC(=O)/C=C/C(C)=C/[C@@]1(C)SC(O)=C(C)C1=O` showed an MIC [1] greater than 100 µg/mL and an MIC [2] greater than 100 µg/mL.

`CC(=O)C1=C(O)S/C(=C\c2ccc(C#N)cc2)C1=O` showed an MIC [1] greater than 200 µg/mL and an MIC [2] of 3.13 µg/mL (≈ 11.5 µM).

In the case of `CC1=C(O)S[C@](C)(/C=C(C)/C=C/C#N)C1=O`, the MIC [1] is reported as greater than 100 µg/mL and the MIC [2] is reported as greater than 100 µg/mL.

`CC(=O)C1=C(O)SC(C)(C/C=C(/C)CCC=C(C)C)C1=O` (stereo not given) gave an MIC [1] of 100 µg/mL (≈ 324 µM) and an MIC [2] greater than 200 µg/mL.

`CC(=O)C1=C(O)S/C(=C\c2ccc(F)cc2)C1=O` gave an MIC [1] of 3.13 µg/mL (≈ 11.8 µM) and an MIC [2] greater than 200 µg/mL.

Work on `CC(=O)C1=C(O)S/C(=C\c2ccc(C(F)(F)F)cc2)C1=O` yielded an MIC [1] of 3.13 µg/mL (≈ 9.96 µM) and an MIC [2] of 3.13 µg/mL (≈ 9.96 µM).

For `CC(=O)/C=C/C(C)=C/[C@@]1(C)SC(O)=C(C)C1=O`, the MIC [1] was greater than 100 µg/mL and the MIC [2] was greater than 100 µg/mL.

In the case of `CC(=O)C1=C(O)S/C(=C\c2ccccc2)C1=O`, the MIC [1] is reported as greater than 200 µg/mL and the MIC [2] is reported as greater than 200 µg/mL.

For `CC(=O)C1=C(O)SC(C)C1=O` (stereo not given), the MIC [1] was 6.25 µg/mL (≈ 36.3 µM) and the MIC [2] was 50 µg/mL (≈ 290 µM).

In the case of `CC(=O)C1=C(O)SC(C)(C/C=C(\C)CC/C=C(\C)CCC=C(C)C)C1=O` (stereo not given), the MIC [1] is reported as 1.56 µg/mL (≈ 4.14 µM) and the MIC [2] is reported as greater than 200 µg/mL.

`CC(=O)C1=C(O)S/C(=C\N(C)C)C1=O` was tested, and the MIC [1] was greater than 200 µg/mL and the MIC [2] was greater than 200 µg/mL.

Work on `CC(=O)C1=C(O)C(C)(Cc2ccc(F)cc2)SC1=O` (stereo not given) yielded an MIC [1] greater than 200 µg/mL and an MIC [2] greater than 200 µg/mL.

`C=C/C(C)=C/[C@@]1(C)SC(=O)C(C)=C1OC(C)=O` gave an MIC [1] greater than 100 µg/mL and an MIC [2] greater than 100 µg/mL.

`CC1=C(O)S[C@](C)(/C=C(\C)C#N)C1=O` showed an MIC [1] greater than 100 µg/mL and an MIC [2] greater than 100 µg/mL.

Work on `CC(=O)C1=C(O)SC(C/C=C(/C)CC/C=C(\C)CCC=C(C)C)(C/C=C(/C)CC/C=C(\C)CCC=C(C)C)C1=O` yielded an MIC [1] greater than 200 µg/mL and an MIC [2] greater than 200 µg/mL.

`CC(=O)C1=C(O)S/C(=C\c2cccc(Oc3ccc(Cl)c(Cl)c3)c2)C1=O` showed an MIC [1] of 0.2 µg/mL (≈ 0.491 µM) and an MIC [2] of 1.56 µg/mL (≈ 3.83 µM).

Compound `CC(=O)C1=C(O)SC(C/C=C/c2ccccc2)C1=O` (stereo not given) has an MIC [1] of 3.13 µg/mL (≈ 11.4 µM) and an MIC [2] of 3.13 µg/mL (≈ 11.4 µM).

`CC(=O)C1=C(O)SC(CCC(C)CCCC(C)C)C1=O` (stereo not given) was tested, and the MIC [1] was 3.13 µg/mL (≈ 10.5 µM) and the MIC [2] was 0.78 µg/mL (≈ 2.61 µM).

Compound `CC(=O)C1=C(O)S/C(=C\c2cccc(F)c2)C1=O` has an MIC [1] of 6.25 µg/mL (≈ 23.6 µM) and an MIC [2] of 50 µg/mL (≈ 189 µM).

Compound `CC1=C(O)S[C@](C)(/C=C(C)/C=N/OCc2ccccc2)C1=O` has an MIC [1] greater than 100 µg/mL and an MIC [2] greater than 100 µg/mL.

Work on `CC(=O)C1=C(O)SCC1=O` yielded an MIC [1] greater than 200 µg/mL and an MIC [2] greater than 200 µg/mL.

`CC(=O)C1=C(O)SC(C/C=C(\C)CC/C=C(\C)CCC=C(C)C)C1=O` (stereo not given) showed an MIC [1] of 0.2 µg/mL (≈ 0.552 µM) and an MIC [2] of 1.56 µg/mL (≈ 4.3 µM).

`CC(=O)C1=C(O)S/C(=C\c2ccccn2)C1=O` gave an MIC [1] of 100 µg/mL (≈ 404 µM) and an MIC [2] greater than 200 µg/mL.

`C=C/C(C)=C\[C@@]1(C)SC(O)=C(C)C1=O` was tested, and the MIC [1] was 0.2 µg/mL (≈ 0.951 µM) and the MIC [2] was greater than 100 µg/mL.

`CC(=O)C1=C(O)C(C)(C/C=C/c2ccccc2)SC1=O` (stereo not given) gave an MIC [1] greater than 200 µg/mL and an MIC [2] of 3.13 µg/mL (≈ 10.9 µM).

With `CC(=O)C1=C(O)S/C(=C\c2cccc(Oc3cccc(C(F)(F)F)c3)c2)C1=O` the MIC [1] was 3.13 µg/mL (≈ 7.7 µM) and the MIC [2] was 0.78 µg/mL (≈ 1.92 µM).

Work on `CC(=O)C1=C(O)S/C(=C\c2ccc(Cl)cc2Cl)C1=O` yielded an MIC [1] of 3.13 µg/mL (≈ 9.93 µM) and an MIC [2] of 3.13 µg/mL (≈ 9.93 µM).

`CC(=O)OC1=C(C)C(=O)S[C@]1(C)/C=C(\C)C=O` showed an MIC [1] greater than 100 µg/mL and an MIC [2] greater than 100 µg/mL.

In the case of `CC(=O)C1=C(O)S/C(=C\c2ccc(O)cc2)C1=O`, the MIC [1] is reported as greater than 200 µg/mL and the MIC [2] is reported as greater than 200 µg/mL.
